One assay concerns the target T1, human VAP-1 (SSAO) (Homo sapiens, UniProt Q16853).
T1 construct: made in house
T1 sequence (Q16853 29-763 limits assumed): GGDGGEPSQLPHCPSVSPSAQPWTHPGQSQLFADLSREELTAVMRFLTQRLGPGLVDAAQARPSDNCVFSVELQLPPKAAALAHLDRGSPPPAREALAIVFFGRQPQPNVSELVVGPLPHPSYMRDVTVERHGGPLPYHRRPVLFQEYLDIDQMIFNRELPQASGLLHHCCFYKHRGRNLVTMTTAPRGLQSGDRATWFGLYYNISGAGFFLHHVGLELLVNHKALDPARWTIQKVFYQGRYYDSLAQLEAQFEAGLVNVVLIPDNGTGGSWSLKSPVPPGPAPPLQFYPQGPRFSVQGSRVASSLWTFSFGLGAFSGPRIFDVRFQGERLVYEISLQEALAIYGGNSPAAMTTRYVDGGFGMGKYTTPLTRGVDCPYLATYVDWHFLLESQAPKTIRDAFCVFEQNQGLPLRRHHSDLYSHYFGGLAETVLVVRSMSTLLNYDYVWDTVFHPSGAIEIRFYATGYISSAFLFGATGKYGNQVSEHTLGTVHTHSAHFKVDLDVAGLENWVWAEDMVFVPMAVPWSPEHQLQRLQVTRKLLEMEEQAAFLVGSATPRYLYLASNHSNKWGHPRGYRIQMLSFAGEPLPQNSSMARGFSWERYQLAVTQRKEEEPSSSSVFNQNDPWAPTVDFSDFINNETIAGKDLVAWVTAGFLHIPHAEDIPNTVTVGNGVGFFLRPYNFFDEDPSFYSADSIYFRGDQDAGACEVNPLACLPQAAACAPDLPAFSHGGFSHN
Nature of the assay: VAP-1 Inhibition Assay (benzylamine substrate, HRP-coupled hydrogen peroxide or 14C benzaldehyde detection). The class given is biochemical. Particulars: purified recombinant human VAP-1 (SSAO), room temperature. On the procedure:
This assay is performed at room temperature with purified recombinantly expressed human VAP-1 (SSAO). Enzyme was prepared essentially as described in Ohman et al. (Protein Expression and Purification 46 (2006) 321-331). The enzyme activity is assayed with benzylamine as substrate by measuring either benzaldehyde production, using 14C-labeled substrate, or by utilizing the production of hydrogen peroxide in a horseradish peroxidise (HRP) coupled reaction. Briefly, test compounds are dissolved in dimethyl sulfoxide (DMSO) to a concentration of 10 mM. […]
Hydrogen peroxide detection: In a horseradish peroxidise (HRP) coupled reaction, hydrogen peroxide oxidation of 10-acetyl-3,7-dihydroxyphenoxazine produces resorufin, which is a highly fluorescent compound (Zhout and Panchuk-Voloshina. Analytical Biochemistry 253 (1997) 169-174; Amplex® Red Hydrogen Peroxide/peroxidise Assay kit, Invitrogen A22188). […] Benzylarnine concentration is fixed at a concentration corresponding to the Michaelis constant, determined using standard procedures. Fluorescence intensity is then measured at several time points during 1-2 hours, exciting at 544 nm and reading the emission at 590 nm. […] The inhibition is measured as % decrease of the signal compared to a control without inhibitor (only diluted DMSO). […]

Another assay has as its target T2, human SSAO (Homo sapiens, UniProt Q16853).
T2 sequence (Q16853 1-763): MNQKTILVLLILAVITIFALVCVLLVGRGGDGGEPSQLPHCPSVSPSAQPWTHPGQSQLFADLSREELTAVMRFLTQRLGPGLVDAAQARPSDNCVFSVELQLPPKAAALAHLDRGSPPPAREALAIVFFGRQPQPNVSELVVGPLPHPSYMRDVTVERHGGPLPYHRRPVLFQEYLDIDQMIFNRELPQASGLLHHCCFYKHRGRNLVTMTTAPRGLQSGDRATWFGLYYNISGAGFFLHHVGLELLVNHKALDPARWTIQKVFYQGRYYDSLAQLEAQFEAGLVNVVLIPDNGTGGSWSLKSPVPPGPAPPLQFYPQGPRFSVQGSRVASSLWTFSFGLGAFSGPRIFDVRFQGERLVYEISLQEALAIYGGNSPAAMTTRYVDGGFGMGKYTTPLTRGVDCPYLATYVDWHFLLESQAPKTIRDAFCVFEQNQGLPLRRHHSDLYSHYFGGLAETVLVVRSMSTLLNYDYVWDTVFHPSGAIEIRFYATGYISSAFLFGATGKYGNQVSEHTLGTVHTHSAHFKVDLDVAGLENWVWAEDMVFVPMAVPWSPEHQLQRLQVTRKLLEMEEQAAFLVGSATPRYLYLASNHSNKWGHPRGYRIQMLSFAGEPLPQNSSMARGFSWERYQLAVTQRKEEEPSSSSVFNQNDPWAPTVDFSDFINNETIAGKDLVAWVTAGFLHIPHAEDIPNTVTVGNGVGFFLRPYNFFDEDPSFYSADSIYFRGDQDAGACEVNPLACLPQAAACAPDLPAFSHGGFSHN
Particulars: Salter-Cid et al., J Pharmacol Exp Ther. 2005; read-out: human SSAO, IC(50); cited from earlier work.

Assay [1] relates to adjuvant-induced arthritis. Nature of the assay: Adjuvant-induced arthritis model, Randall Selitto assay (mechanical hyperalgesia). The following applies: Lewis rats, dosed day 0 to day 28: LJP1207 30 mg/kg po qd, MTX 0.25 mg/kg ip 3 times per week; assessed day 7, 14, 18, 21, 25, 28; FIG. 2. The assay is classed as in vivo, rat. From the text:
Rats injected into the hindpaw with a mixture of Mycobacterium butirricum emulsified in light mineral oil develop a severe polyarthritis which shares some features in common with human rheumatoid arthritis (RA), such as swelling of the extremities, cartilage degradation, loss of joint function and lymphocyte infiltration into diseased joints. This model was originally described more than 60 years ago (Pearson et al., Arthritis and Rheumatology. 1959. 2(5), 440-459) and is still the most widely used assay to identify chemical agents having a potential therapeutic efficacy in RA. […] Furthermore, this is a well-established model for inflammatory pain, especially longer-term (i.e. chronic) inflammatory pain.
Male Lewis rats (220-230 g) were housed in propylene cages with food and water ad libitum. The light cycle was automatically controlled and the room temperature thermostatically regulated to 21±1° C. Prior to the start of the experiment animals were housed in these conditions for 6-8 days.
Rats were anaesthetized before induction of CFA and then were treated orally starting from day 0 to day 28 with LJP1207 (30 mg/kg po qd) or methotrexate (MTX, 0.25 mg/kg ip 3 times per week). Control rats received the vehicle e.g. PBS starting from day 0. […] The development of arthritis was assessed at day 7, 14, 18, 21, 25 and 28. […]

As to `CC(C)[C@H]1c2[nH]cnc2CCN1C(=O)O[C@H]1CCOC1` [Compound 1, (3S)-Tetrahydrofuran-3-yl (4S)-4-isopropyl-1,4,6,7-tetrahydro-5H-Imidazo[4,5-c]pyridine-5-carboxylate], the IC50 on human VAP-1 (SSAO) stood at 37 nM.
For `C=C(CNN)c1ccccc1.Cl` [LJP1207, N′-(2-phenyl-allyl)-hydrazine hydrochloride], on human SSAO, the IC50 was 17 nM. Besides, the “inhibition of paw withdrawal (nociceptive threshold, Randall Selitto)” value in assay [1] was “significant inhibition at day 21, 25 and 28”.
Turning to `CN(Cc1cnc2nc(N)nc(N)c2n1)c1ccc(C(=O)N[C@@H](CCC(=O)O)C(=O)O)cc1` [MTX, methotrexate], the “inhibition of paw withdrawal (nociceptive threshold, Randall Selitto)” value in assay [1] is “significant inhibition starting at day 18 up to day 28”.

The values above are taken from patent US20200397764A1, “VAP-1 INHIBITORS FOR TREATING PAIN” (BENEVOLENTAI CAMBRIDGE LIMITED, priority 2015, published 2020).
